SMILES strings stand for the structures.

The text below walks through data of US6930131B2, “Aryl substituted 3-ethoxy phenyl trifluoromethane sulfonamides for the treatment of non-insulin dependent diabetes mellitus (NIDDM)” (Wyeth, priority 2002, dated 2005).

The test system of series [1] is Hepatocytes Isolated and Cultured from Obese Zucker (fa/fa) Rats. The series is described as follows: Inhibition of glucose output from hepatocytes isolated and cultured from obese Zucker (fa/fa) rats. Type of series: cell-based, rat. The note with it: inhibition of glucose output vs glucagon stimulated cultured hepatocytes. On the procedure:
Inhibition of Glucose Output from Hepatocytes Isolated and Cultured from Obese Zucker (fa/fa) Rats and their Lean Controls
Culturing of Hepatocytes: Isolated hepatocytes were plated on 12 well rat-tail collagen coated plates at a cell density of 5×10(5) cells/ml (approximately 1 ml of cell suspension per well). Following a one hour attachment period in which plates were incubated in a CO2 incubator at 37 deg C. (95% O2, 5% CO2), the supernatant containing unattached hepatocytes was removed and replaced with fresh media (1 ml/well) containing 1 μM dexamethasone and 100 pM insulin. Cells were maintained at 37 deg C. for 48 hours in a 95% O2, 5% CO2 environment. At the end of the first 24 hours, the media was aspirated off of the wells and replaced with fresh media containing the same concentrations of dexamethasone and insulin as described earlier. Treatment with Drugs and Assessment of Glucose Output: Drugs were routinely added with fresh media 24 hours after the initial attachment period. Eighteen hours later, media was aspirated and 500 μl of fresh Hank's buffer, Buffer D (glucose-free) supplemented with hormones, gluconeogenic substrates and drug(s) was added to each well and incubated for 4 hours. At the end of the 4 hour incubation, media from each well was removed and assayed for glucose content using the hexokinase/glucose-6-phosphate dehydrogenase coupled assay on the Boehringer Mannheim model 911 auto analyzer. Glucose concentration was expressed as μg/ml. Three of the plates from each treated group were frozen for subsequent determination of protein content. Two plates from each treatment group were used to assess the cytotoxicity of drug(s) and other agents as determined by the MTT (tetrazolium) dye reduction method (see below).
Assessment of Cytotoxicity using MTT Dye Reduction Assay: Two plates with no insulin treatment and two plates with 10^−8 M insulin treatment were used for the MTT dye reduction assay. Following removal of media from the plates for measurement of glucose output, wells were washed once with 1 ml of Hank's buffer (0.5% BSA). Aliquots of […] of Hank's buffer (1.1% BSA) and […] MTT solution (5 mg MTT/ml in phosphate buffered saline (PBS) filtered through 0.45 micron syringe filter) were added to each well. Plates were incubated for one hour at 37 deg C. After one hour incubation, the MTT dye solution was aspirated off and […] of HCL/isopropanol solution (8 ml of 1 N HCL and 192 ml of isopropanol) was added to each well. HCL/isopropanol solution was mixed by drawing liquid into a pipetman 2 to 3 times and then carefully transferred into a 96 well flat bottom plate. The 96 well plate was read on a plate reader (UV max kinetic microplate reader, Molecular Devices) at 570 nm test wavelength and 650 nm reference wavelength. The results were expressed as % inhibition from the control (lactate and glucagon treated) well.
Protein test procedure: Three plates with no insulin treatment and three plates with 10^−8 M insulin treatment were used for protein determination. After supernatant has been removed for determination of glucose output the plates were frozen and stored at −20 deg C. until ready to assay for protein content. Prior to determination of protein the plates were defrosted at room temperature for 15 minutes. An aliquot of 1 ml 0.1 N NaOH was added to each well. Plates were incubated at 4 deg C. overnight. Solutions for measurement of protein content were mixed by pipetting the NaOH solution up and down several time with a 1 ml pipette and then transferring to a small polyethylene tube. Protein determination was based on that of the Pierce BCA protein assay protocol (Pierce cat. no. 23223). A set of protein standards (0.2, 0.4, 0.6, 0.8, and 1 mg/ml BSA) was prepared by serial dilution of 1 mg/ml bovine serum albumin with 0.1 N NaOH, and 40 μl of each standard, or control blank was pipetted into a 96-well plate in duplicate. Each unknown protein sample (40 μl) was tested in triplicate. […]

The subject of another series is ob/ob (C57 B1/6J) mice. The series is described as follows: Hypoglycemic effect in diabetic ob/ob mice. Type of series: in vivo, mouse. On the procedure: Hypoglycemic Effect in Diabetic OB/OB Mice
Procedure: In each study, male or female ob/ob (C57 B1/6J) mice and their mean litermates (ob/+ or +/+, Jackson Laboratories) ages 2 to 5 months (10 to 65 g) were randomized according to plasma glucose into 4 groups of 10 mice. The mice were housed 5 per cage and were maintained on normal rodent chow with water ad libitum. Mice receive compound daily by gavage (suspended in 0.5 ml of 0.5% methyl cellulose); dissolved in the drinking water; or admixed in the diet. The dose of compounds given ranges from 2.5 to 200 mg/kg body weight/day. Body weight of fed animals was measured at the beginning of each week and doses for the entire week were calculated using this weight and were expressed in terms of the active moiety of the compound. Control mice receive vehicle only. […]
Measurements: The plasma was isolated by centrifugation and the concentration of glucose was measured enzymatically on an Abbott V. P. Analyzer and the plasma concentration of insulin was determined by radioimmunoassay (Heding, 1972)
Analysis of variance followed by Dunnett's Comparison Test (one-tailed) was used to estimate the significant difference between the plasma glucose values from the control group and the individual compound treated groups (CMS SAS Release 5.18). A compound will be considered active if the difference has a p<0.05.

Take `O=S(=O)(Nc1cccc(CCOCc2ccc(-c3ccc(F)cc3)cc2Cl)c1)C(F)(F)F` [Example 22]: inhibition in series [1] was half-maximal at 2.2 µM (IC50). In the case of `O=S(=O)(Nc1cccc(CCOCc2ccc(-c3ccc(Cl)cc3)cc2F)c1)C(F)(F)F` [Example 11, N-{3-[2-(4′-Chloro-3-fluoro-biphenyl-4-ylmethoxy)-ethyl]-phenyl}-C,C,C-trifluoro methane sulfonamide], in series [1], 10 µM corresponded to half-maximal inhibition (IC50). `CC(C)(C)c1ccc(-c2ccc(COCCc3cccc(NS(=O)(=O)C(F)(F)F)c3)c(F)c2)cc1` [Example 19, N-{3-[2-(4′-tert-Butyl-3-fluoro-biphenyl-4-ylmethoxy)-ethyl]-phenyl}-C,C,C-trifluoro-methanesulfonamide] came in with a melting point of 89 to 90 °C. Also, 8 µM corresponded to half-maximal inhibition in series [1] (Rattus norvegicus, Hepatocyte) (IC50). For the molecule `O=S(=O)(Nc1cccc(CCOCc2csc(-c3ccc(F)c(Cl)c3)n2)c1)C(F)(F)F` [Example 56, N-(3-{2-[2-(3-Chloro-4-fluoro-phenyl)-thiazol-4-ylmethoxy]-ethyl}-phenyl)-C,C,C-trifluoro-methanesulfonamide], in the series on ob/ob (C57 B1/6J) mice (5 mg/kg p.o.), the “Reduction in Plasma Glucose Day 1 (6 hr) p.o.” value is given as −16% and the “Reduction in Plasma Glucose Day 3 (6 hr) p.o.” value was −26%. In addition, the concentration for half-maximal inhibition (IC50) in series [1] (Rattus norvegicus, Hepatocyte) turned out to be 15 µM.

`O=C(O)c1ncccc1S` [Na-Mercaptopicolinic acid, reference compound]: the midpoint of inhibition in series [1], the IC50, lay at 45 µM. `COc1ccc(-c2cc(COCCc3cccc(NS(=O)(=O)C(F)(F)F)c3)ccc2F)cc1` [Example 42, C,C,C-Trifluoro-N-{3-[2-(6-fluoro-4′-methoxy-biphenyl-3-yl-methoxy)-ethyl]-phenyl}-methanesulfonamide] gave a melting point of 70 to 71 °C. Besides, in the series on ob/ob (C57 B1/6J) mice (10 mg/kg p.o.), the “Reduction in Plasma Glucose Day 1 (6 hr) p.o.” value is −14% and the “Reduction in Plasma Glucose Day 3 (6 hr) p.o.” value is on record as −14%. `O=S(=O)(Nc1cccc(CCOCc2ccc(-c3ccccn3)cc2)c1)C(F)(F)F` [Example 8, C,C,C-Trifluoro-N-{3-[2-(4-pyridin-2-yl-benzyloxy)-ethyl]-phenyl}-methane sulfonamide]: the melting point was in the range of 95 to 96 °C. Molecule `COc1ccc(-c2ccc(COCCc3cccc(NS(=O)(=O)C(F)(F)F)c3)c(F)c2)cc1` [Example 32, N-{3-[2-(3-fluoro-4′-methoxy-biphenyl-4-ylmethoxy)-ethyl]-phenyl)-C,C,C-trifluoromethanesulfonamide] came in with a melting point of 82 to 84 °C. Molecule `O=S(=O)(Nc1cccc(CCOCc2ccc(-c3ccc(F)cc3)cc2F)c1)C(F)(F)F` [Example 10, N-{3-[2-(3,4′-Difluoro-biphenyl-4-ylmethoxy)-ethyl]-phenyl}-C,C,C-trifluoro-methanesulfonamide] returned a melting point of 65 to 67 °C.

In the case of `O=S(=O)(Nc1cccc(CCOCc2nc(-c3ccc(F)cc3)sc2Br)c1)C(F)(F)F` [Example 62, N-(3-{2-[5-Bromo-2-(4-fluoro-phenyl)-thiazol-4-ylmethoxy]-ethyl}-phenyl)-C,C,C-trifluoromethanesulfonamide], the melting point lay in the range of 84 to 85 °C. On to `O=S(=O)(Nc1cccc(CCOCc2ccc(-c3ccc(OC(F)(F)F)cc3)cc2F)c1)C(F)(F)F` [Example 18, C,C,C-Trifluoro-N-{3-[2-(3-fluoro-4′-trifluoromethoxy-biphenyl-4-yl-methoxy)-ethyl]-phenyl}-methanesulfonamide], for which the melting point is 114 to 115 °C. `O=S(=O)(Nc1cccc(CCOCc2sc3ccccc3c2Cl)c1)C(F)(F)F` [Example 66, N-{3-[2-(3-Chloro-benzo[b]thiophen-2-ylmethoxy)-ethyl]-phenyl}-C,C,C-trifluoro-methanesulfonamide] returned a melting point of 85 to 87 °C. On to `CC(C)(C)c1ccc(-c2nc(COCCc3cccc(NS(=O)(=O)C(F)(F)F)c3)cs2)cc1` [Example 43, N-(3-{2-[2-(4-tert-Butyl-phenyl)-thiazol-4-ylmethoxy]-ethyl}-phenyl)-C,C,C-trifluoro-methanesulfonamide], for which the melting point lay within 110 to 112 °C. Moreover, in series [1] (Rattus norvegicus, Hepatocyte), the midpoint of inhibition, the IC50, lay at 6.9 µM.

`O=S(=O)(Nc1cccc(CCOCc2ccc(C3CCCCC3)cc2)c1)C(F)(F)F` [Example 68, N-{3-[2-(4-cyclohexyl-benzyloxy)-ethyl]-phenyl}-C,C,C-trifluoro-methane sulfonamide] gave a melting point of 90 to 92 °C. Still for that read-out and setting: as for `O=S(=O)(Nc1cccc(CCOCc2ccc(-c3ccc(C(F)(F)F)cc3)cc2F)c1)C(F)(F)F` [Example 14, C,C,C-Trifluoro-N-{3-[2-(3-fluoro-4′-trifluoromethyl-biphenyl-4-yl-methoxy)-ethyl]-phenyl}-methanesulfonamide], the figure is 121 to 122 °C; as for `Cc1c(COCc2cccc(-c3nn[nH]n3)c2)cccc1-c1ccccc1` [Example 33, 5-[3-(2-Methyl-biphenyl-3-ylmethoxymethyl)-phenyl]-2H-tetrazole], 112 to 114 °C; as for `COc1ccc(-c2cccc(COCCc3cccc(NC(N)=O)c3)c2)cc1` [Example 39, {3-[2-(4′-Methoxy-biphenyl-3-ylmethoxy)-ethyl]-phenyl}-urea], 87 to 89 °C. `O=S(=O)(Nc1cccc(CCOCc2ccc(-c3ccc(C(F)(F)F)cc3)cc2)c1)C(F)(F)F` [Example 2, C,C,C-trifluoro-N-{3-[2-(4′-trifluoromethyl-biphenyl-4-ylmethoxy)-ethyl]-phenyl}-methanesulfonamide] returned a melting point of 98 to 100 °C. For the same molecule, in the series with ob/ob (C57 B1/6J) mice (5 mg/kg p.o.), the “Reduction in Plasma Glucose Day 1 (6 hr) p.o.” value is −8% and the “Reduction in Plasma Glucose Day 3 (6 hr) p.o.” value is listed as −34%. Regarding `O=S(=O)(Nc1ccc(CCOCc2ccccc2-c2ccccc2)cc1)C(F)(F)F` [Example 27, N-{4-[2-(Biphenyl-2-ylmethoxy)-ethyl]-phenyl}-C,C,C-trifluoromethanesulfonamide], the melting point lay within 79 to 81 °C.

`O=S(=O)(Nc1cccc(CCOCc2csc(-c3ccc(C(F)(F)F)cn3)n2)c1)C(F)(F)F` [Example 57, C,C,C-Trifluoro-N-(3-{2-[2-(5-trifluoromethyl-pyridin-2-yl)-thiazol-4-yl-methoxy]ethyl}-phenyl)-methanesulfonamide] gave a melting point of 116 to 117 °C.

Take `O=S(=O)(Nc1cccc(CCOCc2ccc(-c3cc(Cl)cc(Cl)c3)cc2)c1)C(F)(F)F` [Example 35, N-{3-[2-(3′,5′-Dichloro-biphenyl-4-ylmethoxy)-ethyl]-phenyl)-C,C,C-trifluoro-methanesulfonamide]: the melting point is 70 to 72 °C.
